# “Also recorded” adds a separate entry of the source.
# Legend:
# [1] = EtHOBA concentration in the colon by LC/ESI/MS/MS; type: in vivo; details: 1.5 and 3.7 mg/ml, after 6 days of treatment
# Experimental: (§1) FIGS. 3A and 3B show data from C57BL/6 mice were treated or not with various concentrations of EtHOBA. (A) Body weight was assessed every day. (B) After 6 days, mice were euthanized and EtHOBA was measured in the colon. n=5 mice/group.
# (§2) The present inventors analyzed the effect of various concentrations of EtHOBA and its bioavailability in control mice. […] After 6 days of treatment, EtHOBA concentrations in the colon were analyzed using liquid chromatography electrospray ionization tandem mass spectrometry (LC/EST/MS/MS).
# [2] = test system: INS-GAS mice infected with H. pylori; assay: H. pylori-induced gastric dysplasia and carcinoma in INS-GAS mice; type: in vivo
# Experimental: FIGS. 16A, 16B, 16C, 16D, 16E, and 16F show INS-GAS mice (8 per group) were infected or not with H. pylori strain PMS for 8 weeks and then treated with EtSA (7.5 mg/ml) one week after infection. (A) EtSA concentration in gastric tissues; **P<0.01, ****P<0.0001 vs. mice without EtSA. (B) Frequency of diagnoses. IMC, intramucosal carcinoma; LGD, low grade dysplasia; ND, no dysplasia. (C) Quantification of extent of dysplasia and cancer as a percentage of tissue sections. (D) H&E staining of INS-GAS mouse stomach tissues, showing carcinoma in an infected mouse; scale bar, 50 μm. In B and C, *P<0.05, **P<0.01 vs. infected mice.
# (§3) As discussed further in the Examples, the human gastric epithelial cell line AGS was infected with Hp PMSS1±10 mM EtSA. FVB/N insulin-gastrin (INS-GAS) mice and Mongolian gerbils were infected for 8 wk with Hp PMSS1 and 7.13, respectively; EtSA (0.75% in water) was given to animals beginning one wk post-infection. Lys-LG adducts, a marker of electrophile reactions, and EtSA were quantified by LC/EST/MS/MS. Histology was analyzed on H&E staining. DNA damage was evaluated by pH2AX staining. Hp colonization was quantified by culture. Mucosal immune responses were determined by RNA profiling and by Luminex assay. Mice were imaged using PET/CT with ^18F-FDG (inflammation marker) and ^18F—NaF (tumor marker).
# (§4) The effect of a scavenger of levuglandins and other dicarbonyls was investigated in transgenic INS-GAS mice, which have high circulating gastrin levels and develop atrophic gastritis, and dysplasia and carcinoma with H. pylori infection. Mice were infected with H. pylori, and then EtSA was administered in drinking water, starting 7 days after infection. After 8 weeks, EtSA levels were measured in the gastric tissues of uninfected and infected mice receiving this compound (FIG. 16A). […] There was no dysplasia or carcinoma in uninfected mice (FIG. 16D).
# [3] = Tolerability of EtHOBA in control mice (body weight, organs); type: in vivo
# Experimental: as §1, §2
# COX-2 activity = assay: PGE2 production in A549 cell media (GC/MS) as measure of COX-2 activity; type: cell-based, human
# Experimental: (A). Scavengers were screened in RAW264.7 cells for the ability to decrease LG adduct formation on histones. Scavengers used were glucosamine (GA), 3-methoxysalicylamine (3-MoSA), pentylpyridoxamine (PPM), and 5-ethylsalicylamine (EtSA). Cells were stimulated to express COX-2, pretreated 45 min. with 500 μM scavenger or vehicle (H2O), and given 20 μM AA for 1 h before lysing and extracting histones. Histone proteins were analyzed by LC/ESI/MS/MS for LG-lysyl lactam adduct, n=2. (B) Stimulated A549 cells were pretreated with 30, 300, or 1000 μM EtSA prior to 1 h with 20 μM AA, and histones analyzed for LG-lysyl adduct. *, p<0.05 by one-way ANOVA followed by Dunnett's multiple comparisons post-test (n=3-5). (C). A549 cells were stimulated, pretreated 45 min. with 1000 μM EtSA or H2O vehicle, and given 20 μM AA for 1 h. Media was analyzed by GC/MS for PGE2 (n=3). There was no effect on PGE2 production at lower doses of EtSA (data not shown).
# To stimulate COX-2 expression, A549 or RAW264.7 cells were treated overnight with 5 ng/mL IL-1B (A549) or 10 μg/mL LPS and 10 U/mL IFNγ (RAW264.7) in serum-free medium. When indicated, cells were pretreated with indomethacin, aldehyde scavengers (glucosamine, 3-MoSA, PPM or EtSA), or vehicle (ethanol for indomethacin, H2O for scavengers) for 45 min, and then given 20 μM arachidonic acid (AA) or DMSO vehicle for 1 h before lysing. […]
# H. pylori = assay: Hp gastric colonization quantified by culture; type: in vivo, Helicobacter pylori; details: INS-GAS mice, EtSA treatment
# Experimental: as §3, §4
# DNA damage (pH2AX) = assay: DNA damage by pH2AX staining in infected mice; type: in vivo; details: infected mice with EtSA treatment; p<0.05
# Experimental: as §3
# mucosal immune responses = assay: Gastritis and mucosal cytokines/chemokines in infected INS-GAS mice; type: in vivo; details: EtSA
# Experimental: as §3
# [4] = H. pylori-infected INS-GAS mice treated with EtSA, 8 weeks, 37.5% without EtSA
smiles,measurement,setting,value
"CCc1ccc(O)c(CN)c1 [EtHOBA, 5-ethyl-2-hydroxybenzylamine]",EtHOBA concentrations in the colon,[1],readily detected
same,development of carcinoma,[2]; [4],0%
same,development of dysplasia,[2]; [4],14.3%
same,extent of dysplasia and carcinoma,"[2]; Hp-infected INS-GAS mice treated with EtSA, percentage of gastric mucosa",significantly attenuated; also recorded: decreases
same,frequency of intramucosal carcinoma,"[2]; Hp-infected INS-GAS mice treated with EtSA, 69% without EtSA, p<0.05",28%
same,Body weight,"[3]; 3.7 mg/ml EtHOBA, control mice, 6 days","lost weight on day 1, but did not lose additional weight and did not die"
same,Body weight,"[3]; 0.37-1.5 mg/ml EtHOBA, compared to untreated mice",no loss of body weight
same,colon weight/length,[3]; 1.5 or 3.7 mg/ml EtHOBA,no change in colon weight/length
same,macroscopic evidence of organ damage,[3]; 1.5 or 3.7 mg/ml EtHOBA,no macroscopic evidence of organ damage
same,PGE2 production,"COX-2 activity; A549, highest concentration tested (1000 μM EtSA)",without affecting
same,PGE2 production,"COX-2 activity; A549, lower doses of EtSA (data not shown)",no effect
same,Hp colonization,H. pylori,not reduced; also recorded: not affected
same,decrease of DNA damage,DNA damage (pH2AX),71%
same,histologic gastritis,mucosal immune responses,not affected
same,tissue cytokines and chemokines,mucosal immune responses,not affected

# Reference: patent publication US11696903B2, “Compounds and methods for scavenging dicarbonyl electrophiles” (VANDERBILT UNIVERSITY, priority 2019, dated 2023)
